According to ChEMBL document CHEMBL4270652, “Design, synthesis, and biological activity of substituted 2-amino-5-oxo-5H-chromeno[2,3-b]pyridine-3-carboxylic acid derivatives as inhibitors of the inflammatory kinases TBK1 and IKKε for the treatment of obesity” (Bioorg Med Chem, 2018):
Converted amounts (≈) assume the structure as drawn. The source made the active and inactive calls. No cut-off for these calls is given here.

How the values were obtained:
physchem = settings: PBS, pH 7.4
Description: Thermodynamic aqueous solubility in PBS of pH 7.4 after overnight incubation by chemiluminescent nitrogen detection

Mus musculus [1] = assay: Increase in serum IL6 levels in C57BL/6 obese mouse model at 25 mg/kg administered via oral gavage measured 6 hrs post treatment by ELISA; format: functional, organism-based
Mus musculus [2] = assay: Antidiabetic activity in C57BL/6 obese mouse model assessed as reduction in blood glucose level at 25 mg/kg administered daily via oral gavage measured post 3 weeks of treatment by glucose tolerance test; format: functional, organism-based
Mus musculus [3] = assay: Induction of insulin-induced hypoglycemia in C57BL/6 obese mouse model at 25 mg/kg administered daily via oral gavage measured post 4 weeks of treatment by insulin tolerance test; format: functional, organism-based
Mus musculus [4] = assay: Antiobesity activity in C57BL/6 obese mouse model assessed as body weight loss at 25 mg/kg administered daily via oral gavage measured post 4 weeks of treatment; format: functional, organism-based

Row | solubility thermodynamic (physchem) [µM] | Structure (SMILES) | further results
1 | 13.7 (≈ 4.33 µg/mL) | CC(C)c1cc2c(=O)c3cc(C(=O)O)c(N)nc3oc2cc1F | –
2 | 94.4 (≈ 31.9 µg/mL) | Nc1nc2oc3ccc(C4CCCCC4)cc3c(=O)c2cc1C(=O)O | Activity (Mus musculus [1]): Active; Activity (Mus musculus [2]): Active; Activity (Mus musculus [3]): Active; Activity (Mus musculus [4]): Active
3 | 179 (≈ 55.8 µg/mL) | CC(C)Cc1ccc2oc3nc(N)c(C(=O)O)cc3c(=O)c2c1 | –
4 | 76.8 (≈ 23 µg/mL) | CN(C)c1ccc2oc3nc(N)c(C(=O)O)cc3c(=O)c2c1 | –
5 | 19.1 (≈ 5.7 µg/mL) | CC(C)c1ccc2c(=O)c3cc(C(=O)O)c(N)nc3oc2c1 | –
6 | 119 (≈ 38.8 µg/mL) | CC(C)CCc1ccc2oc3nc(N)c(C(=O)O)cc3c(=O)c2c1 | –

The next lines start with the compound.

Row | Structure (SMILES) | solubility thermodynamic (physchem) [µM] | further results
7 | Nc1nc2oc3ccc(C4CCC(=O)CC4)cc3c(=O)c2cc1C(=O)O | < 1.1 | –
8 | Nc1nc2oc3ccc(C4CCSCC4)cc3c(=O)c2cc1C(=O)O | 61.3 (≈ 21.8 µg/mL) | –
9 | CC(C)c1cccc2oc3nc(N)c(C(=O)O)cc3c(=O)c12 | 229 (≈ 68.4 µg/mL) | –
10 | CC(C)c1cc2c(=O)c3cc(C(=O)O)c(N)nc3oc2cn1 | 77.9 (≈ 23.3 µg/mL) | –
11 | CC(C)c1ccc2oc3nc(N)c(C(=O)O)cc3c(=O)c2c1 | – | Activity (Mus musculus [1]): Active; Activity (Mus musculus [2]): Active; Activity (Mus musculus [3]): Active
12 | CC(=O)N1CCC(c2ccc3oc4nc(N)c(C(=O)O)cc4c(=O)c3c2)CC1 | 121 (≈ 46 µg/mL) | –
